Measured values as given in patent US20230123334A1, “AMINO LIPID COMPOUND, PREPARATION METHOD THEREFOR, AND APPLICATION THEREOF” (SHENZHEN SHENXIN BIOTECHNOLOGY CO., LTD., priority 2020, published 2023).

These compounds were tested on HEK293 cells (assay: Preliminary screening as DNA vectors, GFP transfection of HEK293 cells). Conditions: amino lipid/DOPE liposome with 75 ng plasmid DNA (psin-EGFP-IRES-Puro); number of GFP-expressing cells divided by total nuclei (Hoechst).
Format: cell-based
Summary of the method: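 First, amino lipid and DOPE were vortexed in sodium acetate buffer (pH 5.6) to form liposomes. Next, these were held with 75 ng EGFP plasmid at room temperature for 30 min. Finally, HEK293 cells were added, cultured at 37° C., Hoechst-stained, and GFP+/total nuclei scored by imaging.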

Row | SMILES | Absolute DNA transfection efficiency in HEK293 cells [%]
1 | CCCCCCCCCCCCCCCCCCSc1nc(NCCCCCC)nc(NCCN2CCCCC2)n1 [S18N6 D4] | 7.2
2 | CCCCCCCCCCCCCCCCCCSc1nc(NCCCCCC)nc(NCCN2CCN(C)CC2)n1 [S18N6 D5] | 18.1
3 | CCCCCCCCCCCCCCCCCCSc1nc(NCCCCCC)nc(NCCCN(C)C)n1 [S18N6 D6] | 14.5
4 | CCCCCCCCCCCCCCCCCCSc1nc(NCCCCCC)nc(NCCN(CC)CC)n1 [S18N6 D7] | 10.4
5 | CCCCCCCCCCCCCCCCCCSc1nc(NCCCCCC)nc(NCCCN2CCOCC2)n1 [S18N6 D8] | 5.5
6 | CCCCCCCCCCCCCCCCCCSc1nc(NCCCCCC)nc(NCCCN2CCN(C)CC2)n1 [S18N6 D9] | 11.0
7 | CCCCCCCCCCCCCCCCCCSc1nc(NCCCCCC)nc(NCC2CCN(C)CC2)n1 [S18N6 D10] | 8.9
8 | CCCCCCCCCCCCCCCCCCSc1nc(NCCCCCCC)nc(NCCN(C)C)n1 [S18N7 D1] | 6.8
9 | CCCCCCCCCCCCCCCCCCSc1nc(NCCCCCCC)nc(NCCN2CCOCC2)n1 [S18N7 D2] | 3.2
10 | CCCCCCCCCCCCCCCCCCSc1nc(NCCCCCCC)nc(NCCN2CCCC2)n1 [S18N7 D3] | 15.6
11 | CCCCCCCCCCCCCCCCCCSc1nc(NCCCCCCC)nc(NCCN2CCCCC2)n1 [S18N7 D4] | 3.5
12 | CCCCCCCCCCCCCCCCCCSc1nc(NCCCCCCC)nc(NCCN2CCN(C)CC2)n1 [S18N7 D5] | 28.2
13 | CCCCCCCCCCCCCCCCCCSc1nc(NCCCCCCC)nc(NCCCN(C)C)n1 [S18N7 D6] | 20.7
14 | CCCCCCCCCCCCCCCCCCSc1nc(NCCCCCCC)nc(NCCN(CC)CC)n1 [S18N7 D7] | 4.5
15 | CCCCCCCCCCCCCCCCCCSc1nc(NCCCCCCC)nc(NCCCN2CCOCC2)n1 [S18N7 D8] | 3.9
16 | CCCCCCCCCCCCCCCCCCSc1nc(NCCCCCCC)nc(NCCCN2CCN(C)CC2)n1 [S18N7 D9] | 9.3
17 | CCCCCCCCCCCCCCCCCCSc1nc(NCCCCCCC)nc(NCC2CCN(C)CC2)n1 [S18N7 D10] | 13.5
18 | CCCCCCCCCCCCCCCCCCSc1nc(NCCCCCCCC)nc(NCCN(C)C)n1 [S18N8 D1] | 4.1
19 | CCCCCCCCCCCCCCCCCCSc1nc(NCCCCCCCC)nc(NCCN2CCOCC2)n1 [S18N8 D2] | 3.8
20 | CCCCCCCCCCCCCCCCCCSc1nc(NCCCCCCCC)nc(NCCN2CCCC2)n1 [S18N8 D3] | 9.6
21 | CCCCCCCCCCCCCCCCCCSc1nc(NCCCCCCCC)nc(NCCN2CCCCC2)n1 [S18N8 D4] | 3.9

Row | SMILES | Absolute DNA transfection efficiency in HEK293 cells [%]
22 | CCCCCCCCCCCCCCCCCCSc1nc(NCCCCCCCC)nc(NCCN2CCN(C)CC2)n1 [S18N8 D5] | 13.6
23 | CCCCCCCCCCCCCCCCCCSc1nc(NCCCCCCCC)nc(NCCCN(C)C)n1 [S18N8 D6] | 23.0
24 | CCCCCCCCCCCCCCCCCCSc1nc(NCCCCCCCC)nc(NCCN(CC)CC)n1 [S18N8 D7] | 6.7
25 | CCCCCCCCCCCCCCCCCCSc1nc(NCCCCCCCC)nc(NCCCN2CCOCC2)n1 [S18N8 D8] | 2.0
26 | CCCCCCCCCCCCCCCCCCSc1nc(NCCCCCCCC)nc(NCCCN2CCN(C)CC2)n1 [S18N8 D9] | 6.6
27 | CCCCCCCCCCCCCCCCCCSc1nc(NCCCCCCCC)nc(NCC2CCN(C)CC2)n1 [S18N8 D10] | 11.7
28 | CCCCCCCCCCCCCCCCCCSc1nc(NCCCCCCCCC)nc(NCCN(C)C)n1 [S18N9 D1] | 5.3
29 | CCCCCCCCCCCCCCCCCCSc1nc(NCCCCCCCCC)nc(NCCN2CCOCC2)n1 [S18N9 D2] | 3.4
30 | CCCCCCCCCCCCCCCCCCSc1nc(NCCCCCCCCC)nc(NCCN2CCCC2)n1 [S18N9 D3] | 20.4
31 | CCCCCCCCCCCCCCCCCCSc1nc(NCCCCCCCCC)nc(NCCN2CCCCC2)n1 [S18N9 D4] | 4.0
32 | CCCCCCCCCCCCCCCCCCSc1nc(NCCCCCCCCC)nc(NCCN2CCN(C)CC2)n1 [S18N9 D5] | 7.7
33 | CCCCCCCCCCCCCCCCCCSc1nc(NCCCCCCCCC)nc(NCCCN(C)C)n1 [S18N9 D6] | 19.5
34 | CCCCCCCCCCCCCCCCCCSc1nc(NCCCCCCCCC)nc(NCCN(CC)CC)n1 [S18N9 D7] | 6.7
35 | CCCCCCCCCCCCCCCCCCSc1nc(NCCCCCCCCC)nc(NCCCN2CCOCC2)n1 [S18N9 D8] | 3.0
36 | CCCCCCCCCCCCCCCCCCSc1nc(NCCCCCCCCC)nc(NCCCN2CCN(C)CC2)n1 [S18N9 D9] | 0.0
37 | CCCCCCCCCCCCCCCCCCSc1nc(NCCCCCCCCC)nc(NCC2CCN(C)CC2)n1 [S18N9 D10] | 4.5
38 | CCCCCCCCCCCCCCCCCCSc1nc(NCCCCCCCCCCC)nc(NCCN(C)C)n1 [S18N11 D1] | 3.7
39 | CCCCCCCCCCCCCCCCCCSc1nc(NCCCCCCCCCCC)nc(NCCN2CCOCC2)n1 [S18N11 D2] | 1.4
40 | CCCCCCCCCCCCCCCCCCSc1nc(NCCCCCCCCCCC)nc(NCCN2CCCC2)n1 [S18N11 D3] | 4.2
41 | CCCCCCCCCCCCCCCCCCSc1nc(NCCCCCCCCCCC)nc(NCCN2CCCCC2)n1 [S18N11 D4] | 10.1
42 | CCCCCCCCCCCCCCCCCCSc1nc(NCCCCCCCCCCC)nc(NCCN2CCN(C)CC2)n1 [S18N11 D5] | 6.3

Row | SMILES | Absolute DNA transfection efficiency in HEK293 cells [%]
43 | CCCCCCCCCCCCCCCCCCSc1nc(NCCCCCCCCCCC)nc(NCCCN(C)C)n1 [S18N11 D6] | 5.2
44 | CCCCCCCCCCCCCCCCCCSc1nc(NCCCCCCCCCCC)nc(NCCN(CC)CC)n1 [S18N11 D7] | 2.7
45 | CCCCCCCCCCCCCCCCCCSc1nc(NCCCCCCCCCCC)nc(NCCCN2CCOCC2)n1 [S18N11 D8] | 1.3
46 | CCCCCCCCCCCCCCCCCCSc1nc(NCCCCCCCCCCC)nc(NCCCN2CCN(C)CC2)n1 [S18N11 D9] | 2.9
47 | CCCCCCCCCCCCCCCCCCSc1nc(NCCCCCCCCCCC)nc(NCC2CCN(C)CC2)n1 [S18N11 D10] | 2.7
48 | CCCCCCCCCCCCCCCCCCSc1nc(NCCCCCCCCCCCC)nc(NCCN(C)C)n1 [S18N12 D1] | 1.3
49 | CCCCCCCCCCCCCCCCCCSc1nc(NCCCCCCCCCCCC)nc(NCCN2CCOCC2)n1 [S18N12 D2] | 0.7
50 | CCCCCCCCCCCCCCCCCCSc1nc(NCCCCCCCCCCCC)nc(NCCN2CCCC2)n1 [S18N12 D3] | 1.8
51 | CCCCCCCCCCCCCCCCCCSc1nc(NCCCCCCCCCCCC)nc(NCCN2CCCCC2)n1 [S18N12 D4] | 0.3
52 | CCCCCCCCCCCCCCCCCCSc1nc(NCCCCCCCCCCCC)nc(NCCN2CCN(C)CC2)n1 [S18N12 D5] | 1.0
53 | CCCCCCCCCCCCCCCCCCSc1nc(NCCCCCCCCCCCC)nc(NCCCN(C)C)n1 [S18N12 D6] | 0.5
54 | CCCCCCCCCCCCCCCCCCSc1nc(NCCCCCCCCCCCC)nc(NCCN(CC)CC)n1 [S18N12 D7] | 0.5
55 | CCCCCCCCCCCCCCCCCCSc1nc(NCCCCCCCCCCCC)nc(NCCCN2CCOCC2)n1 [S18N12 D8] | 0.0
56 | CCCCCCCCCCCCCCCCCCSc1nc(NCCCCCCCCCCCC)nc(NCCCN2CCN(C)CC2)n1 [S18N12 D9] | 0.0
57 | CCCCCCCCCCCCCCCCCCSc1nc(NCCCCCCCCCCCC)nc(NCC2CCN(C)CC2)n1 [S18N12 D10] | 5.3
58 | CCCCCCCCCCCCCCCCCCSc1nc(NCCCCCCCCCCCCC)nc(NCCN(C)C)n1 [S18N13 D1] | 1.3
59 | CCCCCCCCCCCCCCCCCCSc1nc(NCCCCCCCCCCCCC)nc(NCCN2CCOCC2)n1 [S18N13 D2] | 0.0
60 | CCCCCCCCCCCCCCCCCCSc1nc(NCCCCCCCCCCCCC)nc(NCCN2CCCC2)n1 [S18N13 D3] | 2.8
61 | CCCCCCCCCCCCCCCCCCSc1nc(NCCCCCCCCCCCCC)nc(NCCN2CCCCC2)n1 [S18N13 D4] | 0.0
62 | CCCCCCCCCCCCCCCCCCSc1nc(NCCCCCCCCCCCCC)nc(NCCN2CCN(C)CC2)n1 [S18N13 D5] | 0.0
63 | CCCCCCCCCCCCCCCCCCSc1nc(NCCCCCCCCCCCCC)nc(NCCCN(C)C)n1 [S18N13 D6] | 2.6
